Measured values taken from patent US9115092B2, “Substituted quinazoline and pyrido-pyrimidine derivatives” (Asana Biosciences, LLC, priority 2010, dated 2015).

Assays:
PC3 cells = experiment: XTT assay for cell viability, PC3 cells; format: cell-based, human; conditions: Homo sapiens, PC-3, cell viability
Procedure, shortened: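 PC3 cells seeded at 1000 cells/well, grown 24 h, then exposed to serial dilutions of compound for 96 h. Viability read by XTT dye at 37° C, absorbance 465 nm. EC50 from sigmoidal dose-response fit.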

mTOR kinase = molecular target: T1, mTOR kinase (Homo sapiens, UniProt P42345); experiment: mTOR kinase TR-FRET assay; format: biochemical; conditions: read-out: mTO R
T1 construct: purchased Millipore, USA
Procedure, shortened: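 TR-FRET read-out (340 nm excitation, 615/665 nm emission) of Thr389 phosphorylation of a ULight-labeled p70 S6K peptide (50 nM) by mTOR, 20 μM ATP, 60 min room temperature after 60 min compound preincubation. Buffer HEPES pH 7.5 with MnCl2, EGTA; IC50 by sigmoidal dose-response.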

[1] = molecular target: T2, PI3Kα (wild-type), P110/P85α (Homo sapiens, UniProt P42336); experiment: PI3 Kinase TR-FRET assay, PI3Kα (wild-type); format: biochemical
T2 construct: made in house; host or cells: SF9 insect cells
T2 sequence (P42336 whole entry): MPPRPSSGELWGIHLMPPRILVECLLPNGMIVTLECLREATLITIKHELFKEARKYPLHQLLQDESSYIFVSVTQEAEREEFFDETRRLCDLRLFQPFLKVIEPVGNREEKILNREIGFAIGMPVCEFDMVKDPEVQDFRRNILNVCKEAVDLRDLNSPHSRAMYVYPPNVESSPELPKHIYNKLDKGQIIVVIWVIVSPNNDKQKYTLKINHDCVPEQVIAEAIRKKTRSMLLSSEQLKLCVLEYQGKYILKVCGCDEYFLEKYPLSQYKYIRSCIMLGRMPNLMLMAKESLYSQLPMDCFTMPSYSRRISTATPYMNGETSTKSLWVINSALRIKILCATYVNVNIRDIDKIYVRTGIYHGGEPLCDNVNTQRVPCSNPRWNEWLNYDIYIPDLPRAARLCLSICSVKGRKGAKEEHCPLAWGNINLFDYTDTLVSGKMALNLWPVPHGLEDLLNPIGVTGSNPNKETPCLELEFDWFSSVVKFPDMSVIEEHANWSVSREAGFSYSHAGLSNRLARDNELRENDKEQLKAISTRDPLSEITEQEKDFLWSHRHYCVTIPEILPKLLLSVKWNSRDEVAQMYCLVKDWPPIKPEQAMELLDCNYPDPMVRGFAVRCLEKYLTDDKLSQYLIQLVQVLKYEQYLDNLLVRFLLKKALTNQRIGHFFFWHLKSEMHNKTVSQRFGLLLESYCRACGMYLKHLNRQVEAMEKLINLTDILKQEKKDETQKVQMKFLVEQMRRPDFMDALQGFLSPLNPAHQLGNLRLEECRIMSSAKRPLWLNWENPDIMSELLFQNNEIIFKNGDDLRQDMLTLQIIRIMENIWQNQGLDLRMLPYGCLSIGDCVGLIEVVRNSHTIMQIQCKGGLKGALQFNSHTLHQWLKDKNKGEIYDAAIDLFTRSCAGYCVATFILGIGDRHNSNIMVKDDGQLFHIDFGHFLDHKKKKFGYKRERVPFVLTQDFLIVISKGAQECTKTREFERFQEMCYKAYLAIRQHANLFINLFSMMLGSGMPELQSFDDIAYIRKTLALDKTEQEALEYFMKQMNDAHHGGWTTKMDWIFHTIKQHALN
T2 sequence (P27986 whole entry partner): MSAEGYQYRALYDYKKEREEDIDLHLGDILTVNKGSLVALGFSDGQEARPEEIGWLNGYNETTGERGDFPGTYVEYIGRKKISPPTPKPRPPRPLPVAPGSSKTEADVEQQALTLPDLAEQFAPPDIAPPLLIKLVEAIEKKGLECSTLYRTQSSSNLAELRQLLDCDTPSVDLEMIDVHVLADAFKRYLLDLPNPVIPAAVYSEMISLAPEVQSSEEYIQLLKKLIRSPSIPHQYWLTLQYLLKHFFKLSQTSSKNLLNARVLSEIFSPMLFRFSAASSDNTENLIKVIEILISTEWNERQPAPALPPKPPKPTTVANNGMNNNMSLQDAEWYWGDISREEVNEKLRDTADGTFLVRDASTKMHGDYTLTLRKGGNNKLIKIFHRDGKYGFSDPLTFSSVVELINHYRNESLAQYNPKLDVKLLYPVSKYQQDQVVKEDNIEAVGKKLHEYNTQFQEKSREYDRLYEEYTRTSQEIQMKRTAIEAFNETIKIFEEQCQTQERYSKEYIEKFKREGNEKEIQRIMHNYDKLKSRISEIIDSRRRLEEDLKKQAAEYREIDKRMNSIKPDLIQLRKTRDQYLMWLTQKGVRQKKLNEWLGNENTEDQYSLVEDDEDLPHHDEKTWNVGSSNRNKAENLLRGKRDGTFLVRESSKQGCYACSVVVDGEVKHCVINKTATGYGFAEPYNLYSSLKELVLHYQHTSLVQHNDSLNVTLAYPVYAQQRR
Procedure, shortened: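 TR-FRET read-out of PIP3 formation via biotin-PIP3 displacement (665/615 nm ratio) gave IC50 curves. Enzyme: 5 ng wild-type P110/P85α from Sf9 cells, 60 min RT with compound and PIP2 (MgCl2 40 mM, DTT 5 mM), then 30 min RT kinase reaction at 10 μM ATP and 10 μM PIP2.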

PI3Kα mutation E545K = PI3Kα mutation E545K (Homo sapiens, UniProt P42336, E545K); experiment: PI3 Kinase TR-FRET assay, PI3Kα mutation E545K; format: biochemical; conditions: read-out: inhibition of PI3Kα mutation E545K, IC50
Sequence of PI3Kα mutation E545K (P42336 whole entry E545K, the tested form may be a part, canonical isoform): as the sequence (P42336 whole entry) above, with E545K counted along it
Sequence of PI3Kα mutation E545K (P27986 whole entry partner, the tested form may be a part, canonical isoform): as the sequence (P27986 whole entry partner) above
Description: The ability of compounds of the invention to inhibit PI3K activity was determined in a homogeneous TR-FRET assay using a PI3K assay kit (Millipore, USA; cat #33-016) according to manufacturer's instructions. PI3-Kinases (isoforms α, β, γ and δ) catalyze the phosphorylation of phosphatidylinositol, PIP2 to PIP3 in the presence of ATP and Mg^2+. The PIP3 product is detected by displacement of biotin-PIP3 from an energy transfer complex consisting of Europium labeled anti-GST monoclonal antibody, a GST-tagged PH domain, biotinylated PIP3 and Streptavidin-APC. Excitation of Europium in the complex results in an energy transfer to the APC and a fluorescence emission at 665 nm. The PIP3 product displaces biotin-PIP3 from the complex resulting in a loss of energy transfer and thus a decrease in signal.
To test for the ability of compounds to inhibit the activity of PI3Kα (wild-type), exemplary compounds of formula (I) were dissolved in DMSO and directly distributed into 384-well plates at a volume of 0.5 μL. 14.5 μL of P110/P85α/PIP2 mixture in buffer (obtained from the Millipore kit) containing MgCl2 (40 mM) and DTT (5 mM) was added to compound wells and incubated for 60 min at room temperature. P110/P85α was expressed in SF9 insect cells and purified nickel column extraction. Five ng of wild-type P110/P85α was used in the assay. The kinase reaction was started by the addition of ATP. The assay concentrations of both PIP2 and ATP were 10 μM. The reaction mixture was incubated for 30 min at room temperature and was terminated by the addition of stop mix and detection mix. Fluorescence was measured at 615 and 665 nm upon excitation at 340 nm in a Victor™ V5 fluorometer (Perkin Elmer, USA). The fluorescence emission ratio at 665 to 615 nm, proportional to the kinase activity, was plotted against the compound concentration to generate dose-response curves and IC50 values were determined using GraphPad Prism® 5 software.
The activity of PI3Kα mutations H1047R and E545K were assayed in a similar manner to the assay protocol described above for PI3Kα (wild type). […]

SMILES | IC50 (PC3 cells) | IC50 (mTOR kinase) | IC50 [1] | IC50 (PI3Kα mutation E545K)
CN(C)C(=O)c1ccc(NC(=O)Nc2ccc(-c3nc(N4CCOCC4)c4ccc(-c5cncnc5)cc4n3)cc2)cc1 [Example 1, N,N-Dimethyl-4-(3-{4-[4-morpholin-4-yl-7-pyrimidin-5-yl-quinazolin-2-yl)-phenyl]-ureido}-benzamide] | 100 to 500 nM | < 50 nM | < 50 nM | 
Cc1ccc(-c2ccc3c(N4CCOCC4)nc(-c4ccc(NC(=O)Nc5ccc(C(=O)N(C)C)cc5)cc4)nc3c2)o1 [Example 2, N,N-Dimethyl-4-(3-{4-[7-(5-methyl-furan-2-yl)-4-morpholin-4-yl-quinazolin-2-yl]-phenyl}-ureido)-benzamide] | < 100 nM | < 50 nM | < 50 nM | 
CN(C)C(=O)c1ccc(NC(=O)Nc2ccc(-c3nc(N4CCOCC4)c4ccc(-c5ccco5)cc4n3)cc2)cc1 [Example 51, 4-{3-[4-(7-furan-2-yl-4-morpholin-4-yl-quinazolin-2-yl)-phenyl]-ureido}-N,N-dimethyl-benzamide] | 100 to 500 nM | < 50 nM | < 50 nM | 
CN(C)C(=O)c1ccc(NC(=O)Nc2ccc(-c3nc(N4CCOCC4)c4ccc(-c5cncnc5)cc4n3)cc2)c(F)c1 [Example 133, 3-fluoro-N,N-dimethyl-4-(3-(4-(4-morpholino-7-(pyrimidin-5-yl)quinazolin-2-yl)phenyl)ureido)-benzamide] | 201 to 10000 nM | < 50 nM | < 50 nM | < 500 nM
CN(C)C(=O)c1ccc(NC(=O)Nc2ccc(-c3nc(N4CCOCC4)c4ccc(-c5cccnc5F)cc4n3)cc2)c(F)c1 [Example 146, 3-fluoro-4-(3-(4-(7-(2-fluoropyridin-3-yl)-4-morpholino-quinazolin-2-yl)phenyl)ureido)-N,N-dimethyl-benzamide] | 201 to 10000 nM | < 50 nM | 50 to 200 nM | < 500 nM
CN(C)C(=O)c1ccc(NC(=O)Nc2ccc(-c3nc(N4CCOCC4)c4ccc(-c5cccnc5)cc4n3)cc2)c(F)c1 [Example 152, 3-fluoro-N,N-dimethyl-4-(3-(4-(4-morpholino-7-(pyridin-3-yl)quinazolin-2-yl)phenyl)ureido)-benzamide] | < 100 nM | < 50 nM | < 50 nM | < 500 nM
